System: breast cancer cells
Test: In vitro bioactivity analysis: killing of cancer cells by minimal MTT method
Format: cell-based
Conditions: culture medium RPMI-1640 containing 2% calf serum, compared with paclitaxel standard sample
From the text: FIG. 10 is the chart of the effects of paclitaxel sample made by the method of present invention and standard paclitaxel sample on the killing percentage against […] cells by minimal MTT method by the use of culture medium RPMI-1640 containing 2% calf serum.
In vitro bioactivity analysis of the fermented paclitaxel show high efficacy on killing breast cancer cells.

CC(=O)O[C@H]1C(=O)[C@@]2(C)[C@H]([C@H](OC(=O)c3ccccc3)[C@]3(O)C[C@H](OC(=O)[C@H](O)[C@@H](NC(=O)c4ccccc4)c4ccccc4)C(C)=C1C3(C)C)[C@]1(OC(C)=O)CO[C@@H]1C[C@@H]2O [fermented paclitaxel, 5β, 20-epoxy-1,2α,4,7β 10β 13α-hexahydroxy-tax-11-en-9-one-4,10-diacetate-2-benzoate-13-ester with (2R, 3S)-N-benzoyl-3-phenyl isoserine]
efficacy on killing breast cancer cells (killing percentage, FIG. 10): high efficacy
efficacy on killing breast cancer cells (killing percentage, FIG. 10) (listed as paclitaxel from Examples 20-24): same effects as paclitaxel standard samples

— US20070218531A1, “Micro-Organism and a Method of Producing Paclitaxel by the Use of the Same” (HAIYI BIOTECH PTE LTD, priority 2004, published 2007)
